pEC50: −log10 of the molar value.
Experiments:
[1] = biological target: T1, P. falciparum GS-I (PfGS-I) (Plasmodium falciparum, UniProt W7JM41); experiment: Glutamine synthetase assay, purified MBP-fused PfGS-I (Glutamine/Glutamate-GLO); type: biochemical, Plasmodium falciparum NF54
T1 sequence (W7JM41 1-544): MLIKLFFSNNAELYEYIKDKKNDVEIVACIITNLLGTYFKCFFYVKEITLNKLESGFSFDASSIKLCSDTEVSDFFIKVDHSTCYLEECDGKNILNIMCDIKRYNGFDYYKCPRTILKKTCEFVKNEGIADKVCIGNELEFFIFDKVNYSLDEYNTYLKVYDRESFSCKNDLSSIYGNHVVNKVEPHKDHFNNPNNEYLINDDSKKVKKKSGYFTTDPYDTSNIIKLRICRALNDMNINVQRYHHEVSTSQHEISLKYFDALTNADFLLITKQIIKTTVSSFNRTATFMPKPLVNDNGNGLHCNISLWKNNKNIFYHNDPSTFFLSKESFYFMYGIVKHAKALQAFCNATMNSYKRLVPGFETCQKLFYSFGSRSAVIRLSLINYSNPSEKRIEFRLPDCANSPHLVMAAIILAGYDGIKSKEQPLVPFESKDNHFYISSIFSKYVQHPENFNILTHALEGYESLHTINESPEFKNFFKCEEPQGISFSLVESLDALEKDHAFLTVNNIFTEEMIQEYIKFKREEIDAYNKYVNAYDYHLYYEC

human GS-II (hGS-II) = biological target: T2, human GS-II (hGS-II) (Homo sapiens, UniProt P15104); experiment: Glutamine synthetase assay, human GS-II (Glutamine/Glutamate-GLO); type: biochemical; conditions: 1 µM AST, 30 min, Figure 2b
T2 construct: purchased BioVision Inc., Milpitas, CA, USA
T2 sequence (P15104 whole entry): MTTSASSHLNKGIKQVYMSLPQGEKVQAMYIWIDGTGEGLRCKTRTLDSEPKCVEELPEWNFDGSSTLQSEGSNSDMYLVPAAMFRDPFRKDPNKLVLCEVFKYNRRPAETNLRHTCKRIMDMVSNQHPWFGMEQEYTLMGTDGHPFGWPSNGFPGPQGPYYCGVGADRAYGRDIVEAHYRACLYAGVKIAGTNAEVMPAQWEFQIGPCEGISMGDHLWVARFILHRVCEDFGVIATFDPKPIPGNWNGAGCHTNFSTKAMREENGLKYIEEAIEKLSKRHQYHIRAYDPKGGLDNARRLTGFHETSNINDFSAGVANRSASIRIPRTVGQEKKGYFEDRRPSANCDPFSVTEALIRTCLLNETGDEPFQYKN
Procedure: The activity and inhibition profiles of purified MBP-fused PfGS-I or human GS-II (hGS-II) (BioVision Inc., Milpitas, CA, USA) in the presence or absence of AST were estimated from glutamine production using Glutamine/Glutamate-GLO^TM Assay Kit (Promega, Madison, WI, USA). The assay mixture (50 mM imidazole-HCl buffer (pH 7.0), 7.6 mM ATP, 50 mM magnesium chloride, 50 mM ammonium chloride) with or without the indicated concentration of GS enzyme was preincubated in the presence or absence of the indicated concentrations of AST for 15 min at room temperature. The reaction was initiated through the addition of L-glutamate at 0.1 mM, the final concentration. The reaction mixtures were incubated at 37 °C with shaking at 300 rpm for the indicated time. The reactions were terminated by chilling the reaction mixture in ice water and filtered with 30 kDa Amicon Ultra centrifugal filters at 4 °C. Glutamate concentrations in the filtered samples were determined using a Glutamine/Glutamate-GLO^TM Assay as instructed in the kit’s manual, from which glutamine concentrations were estimated by subtracting the glutamate concentrations from the initial concentrations (0.1 mM). The EC50 (half maximal effective concentration) of AST for PfGS-I was calculated using Sigma Plot (Systat Software, Inc., Sun Jose, CA, USA).

[2] = tested on: asexual-stage P. falciparum; experiment: Antimalarial activity on asexual-stage P. falciparum in human blood (parasitemia, Giemsa smears); type: cell-based, Plasmodium falciparum NF54; conditions: day 4, 0.5% starting parasitemia, 2% hematocrit; read-out: EC50 for inhibition of the asexual-stage P. falciparum (parasitemia rates)
Procedure: 3–5-day cultured P. falciparum-infected red blood cells (iRBCs) were mixed with fresh human red blood cells (RBCs) (AB+ type) in complete RPMI 1640 to prepare cultures with 0.5% parasitemia and 2% hematocrit. AST was dissolved in dimethyl sulfoxide (DMSO). Then, 5 μL DMSO with AST at concentrations of 0, 0.5, 1, 2, 4, and 8 mM were added to the 0.5 mL iRBCs in a 48-well plate, yielding final concentrations of 5, 10, 20, 40, and 80 µM, respectively. The plate was incubated in a candle jar at 37 °C. Approximately 48 h later, the medium was replaced with fresh medium containing the same concentration of AST. Parasitemia was recorded via microscopic evaluation of Giemsa-stained blood smears on day 4 post-incubation.

[3] = tested on: P. falciparum transmission to Anopheles gambiae mosquitoes; experiment: Transmission-blocking standard membrane feeding assay (SMFA), oocysts in mosquito midguts; type: in vivo, Plasmodium falciparum NF54; conditions: for Mean oocyst number per midgut: control 2.6; for Infect(%) percentage of infected mosquitoes: control 60
[4] = tested on: macrophage-like cells differentiated from THP-1
[5] = tested on: human cell lines (HepG2, HEK293, Caco-2, THP-1, macrophage)
[6] = tested on: Anopheles gambiae mosquitoes; experiment: Mosquito mortality observed in SMFA (insecticidal activity); conditions: AST in blood meal

## C[As](=O)(O)CC[C@H](N)C(=O)O [AST, 2-amino-4-(hydroxymethylarsinoyl)butanoate]
[1]
  pEC50: 6.40
[1]; 1 µM AST, PfGS-I 1 µM, 30 min, Figure 2b
  activity of PfGS-I compared with the control without AST treatment: less than 40%
[1]; AST at 100 µM, Figure 2c
  inhibition of PfGS-I activity: completely inhibited
Human GS-II (hGS-II)
  effect on activity of hGS-II: did not significantly reduce
[2]
  pEC50: 4.86
[3]; 3 µM AST, SMFA
  inhibition of malaria transmission: completely inhibited
[3]; SMFA, day 7 post-infection, read-out: EC50 in blocking the transmission of the sexual-stage P. falciparum to mosquitos (oocysts per mosquito)
  pEC50: 6.47
[3]; [AST] 0.1 μM
  Mean oocyst number per midgut: 2.8
  Infect(%) percentage of infected mosquitoes: 59.6%
[3]; [AST] 0.3 μM
  Mean oocyst number per midgut: 1.4
  Infect(%) percentage of infected mosquitoes: 36.8%
[3]; [AST] 1 μM
  Mean oocyst number per midgut: 0.25
  Infect(%) percentage of infected mosquitoes: 20%
[3]; [AST] 3 μM
  Mean oocyst number per midgut: 0
  Infect(%) percentage of infected mosquitoes: 0%
[3]; [AST] 30 μM
  Mean oocyst number per midgut: 0
  Infect(%) percentage of infected mosquitoes: 0%
HEK293
  CC50: > 250 µM
  cytotoxicity relative to As(III) (times less cytotoxic): > 10 times
THP-1
  CC50: > 250 µM
[4]
  CC50: > 250 µM
HepG2
  CC50: > 250 µM
Caco-2
  CC50: 150 to 200 µM
[5]
  permeability (total cellular arsenic levels): permeable
[6]
  insecticidal activity (dead mosquitoes): no dead mosquitoes were observed
